From US8791148B2, “Substituted benzimidazolone derivatives, medicaments comprising them and their use” (AbbVie Deutschland GmbH & Co. KG, priority 2006, dated 2014)

Target: T1, human vasopressin V1b receptor (Homo sapiens, UniProt P47901)
T1 construct: expressed in transfected cells; host or cells: CHO-K1 (cell line hV1b-3H2_CHO), membrane preparation
T1 sequence (P47901 1-424): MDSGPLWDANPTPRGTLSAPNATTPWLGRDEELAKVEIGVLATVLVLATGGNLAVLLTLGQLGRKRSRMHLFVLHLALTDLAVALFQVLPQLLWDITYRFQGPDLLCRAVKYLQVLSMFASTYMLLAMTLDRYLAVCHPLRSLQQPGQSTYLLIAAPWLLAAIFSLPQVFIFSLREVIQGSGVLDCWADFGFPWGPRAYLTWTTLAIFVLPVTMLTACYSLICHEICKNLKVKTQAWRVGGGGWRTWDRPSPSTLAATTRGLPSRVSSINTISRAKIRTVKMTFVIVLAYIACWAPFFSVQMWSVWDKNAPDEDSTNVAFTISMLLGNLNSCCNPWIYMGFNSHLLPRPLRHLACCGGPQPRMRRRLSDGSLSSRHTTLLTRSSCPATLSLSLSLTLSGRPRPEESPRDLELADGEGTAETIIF
Assay: Vasopressin V1b receptor binding assay
Details: membranes from CHO-K1 cells with stably expressed human V1b receptors; displacement of 1.5 nM 3H-AVP; read-out: V1b receptor affinity (affinity constant Ki)
Method: Vasopressin V1b Receptor Binding Assay:
The test substances were dissolved in a concentration of 10^−2 M in DMSO and further diluted to 5×10^−4 M to 5×10^−9 M in DMSO. This series of DMSO predilutions was diluted 1:10 with assay buffer. The substance concentration was again diluted 1:5 in the assay mixture (2% DMSO in the mixture).
The membrane pellet was again homogenized and centrifuged as described and then taken up in 50 mM Tris-HCl, pH 7.4, homogenized and stored in aliquots frozen in liquid nitrogen at −190° C.
The incubation buffer was: 50 mM Tris, 10 mM MgCl2, 0.1% BSA, pH 7.4. […] The nonspecific binding was determined with 1 uM AVP (Bachem #H1780). All determinations were carried out as triplicate determinations. After incubation (60 minutes at room temperature), the free radioligand was removed by vacuum filtration (Skatron cell harvester 7000) through Wathman GF/B glass fiber filter mats, and the filters were transferred into scintillation vials. The liquid scintillation measurement took place in a Tricarb model 2000 or 2200CA instrument (Packard). Conversion of the measured cpm into dpm was carried out with the aid of a standard quench series.
The binding parameters were calculated by nonlinear regression in SAS.
The above assay was used to measure the affinities of the compounds of the invention for the human vasopressin V1b receptor and to determine the affinity constants (Ki).

Compound	Ki [µM]
COc1ccc(S(=O)(=O)n2c(=O)n(C(C(=O)N3CCN(c4ccncc4)CC3)c3ccccc3OC)c3cc(Cl)ccc32)c(OC)c1 (centres unmarked) [Example 12, 5-Chloro-1-(2,4-dimethoxybenzenesulfonyl)-3-[1-(2-methoxyphenyl)-2-oxo-2-(4-pyridin-4-ylpiperazin-1-yl)ethyl]-1,3-dihydrobenzimidazol-2-one]	0.5 to 10
COc1ccccc1C(C(=O)N1CCN(c2ccncc2)CC1)n1c(=O)n(S(=O)(=O)c2cccc3cccnc23)c2ccc(Cl)cc21 (centres unmarked) [Example 13, 5-Chloro-3-[1-(2-methoxyphenyl)-2-oxo-2-(4-pyridin-4-ylpiperazin-1-yl)-ethyl]-1-(quinoline-8-sulfonyl)-1,3-dihydrobenzimidazol-2-one]	0.5 to 10
COc1ccccc1C(C(=O)N1CCN(c2ccncc2)CC1)n1c(=O)n(S(=O)(=O)c2ccc(C#N)cc2)c2ccc(Cl)cc21 (centres unmarked) [Example 14, 4-{5-Chloro-3-[1-(2-methoxyphenyl)-2-oxo-2-(4-pyridin-4-ylpiperazin-1-yl)ethyl]-2-oxo-2,3-dihydrobenzimidazole-1-sulfonyl}benzonitrile]	0.5 to 10
COc1ccccc1C(C(=O)N1CCN(C2CCN(C)CC2)CC1)n1c(=O)n(S(=O)(=O)c2cccc3cccnc23)c2ccc(Cl)cc21 (centres unmarked) [Example 15, 5-Chloro-3-{1-(2-methoxyphenyl)-2-[4-(1-methylpiperidin-4-yl)piperazin-1-yl]-2-oxoethyl}-1-(quinoline-8-sulfonyl)-1,3-dihydrobenzimidazol-2-one]	0.5 to 10
COc1ccccc1C(C(=O)N1CCN(C2CCN(C)CC2)CC1)n1c(=O)n(S(=O)(=O)c2ccc(C#N)cc2)c2ccc(Cl)cc21 (centres unmarked) [Example 16, 4-(5-Chloro-3-{1-(2-methoxyphenyl)-2-[4-(1-methylpiperidin-4-yl)piperazin-1-yl]-2-oxoethyl}-2-oxo-2,3-dihydrobenzoimidazole-1-sulfonyl)benzonitrile]	0.5 to 10
CCCN1CCN(C2CCN(C(=O)C(c3ccccc3)n3c(=O)n(S(=O)(=O)c4ccc(OC)cc4)c4ccc(Cl)cc43)CC2)CC1 (centres unmarked) [Example 17, 5-Chloro-1-(4-methoxybenzenesulfonyl)-3-{2-oxo-1-phenyl-2-[4-(4-propylpiperazin-1-yl)piperidin-1-yl]ethyl}-1,3-dihydrobenzimidazol-2-one]	< 0.1
COc1ccc(S(=O)(=O)n2c(=O)n(C(C(=O)N3CCN(C4CCN(C)CC4)CC3)c3cccc(OC)c3)c3cc(Cl)ccc32)cc1 (centres unmarked) [Example 19, 5-Chloro-1-(4-methoxybenzenesulfonyl)-3-{1-(3-methoxyphenyl)-2-[4-(1-methylpiperidin-4-yl)piperazin-1-yl]-2-oxo-ethyl}-1,3-dihydrobenzimidazol-2-one]	0.1 to 0.5
COc1ccc(S(=O)(=O)n2c(=O)n(C(C(=O)N3CCN(c4ccncc4)CC3)c3cccc(OC)c3)c3cc(Cl)ccc32)cc1 (centres unmarked) [Example 20, 5-Chloro-1-(4-methoxybenzenesulfonyl)-3-[1-(3-methoxyphenyl)-2-oxo-2-(4-pyridin-4-ylpiperazin-1-yl)ethyl]-1,3-dihydrobenzimidazol-2-one]	< 0.1
COc1cccc(C(C(=O)N2CCN(c3ccncc3)CC2)n2c(=O)n(S(=O)(=O)c3ccc(OC)cc3OC)c3ccc(Cl)cc32)c1 (centres unmarked) [Example 21, 5-Chloro-1-(2,4-dimethoxybenzenesulfonyl)-3-[1-(3-methoxyphenyl)-2-oxo-2-(4-pyridin-4-ylpiperazin-1-yl)-ethyl]-1,3-dihydrobenzimidazol-2-one]	0.1 to 0.5
COc1cccc(C(C(=O)N2CCN(C3CCN(C)CC3)CC2)n2c(=O)n(S(=O)(=O)c3ccc(C#N)cc3)c3ccc(Cl)cc32)c1 (centres unmarked) [Example 22, 4-(5-Chloro-3-{1-(3-methoxyphenyl)-2-[4-(1-methylpiperidin-4-yl)piperazin-1-yl]-2-oxoethyl}-2-oxo-2,3-dihydrobenzimidazol-1-sulfonyl)benzonitrile]	0.1 to 0.5
CN1CCC(N2CCN(C(=O)C(c3ccccc3)n3c(=O)n(S(=O)(=O)c4ccc(C#N)cc4)c4ccc(C#N)cc43)CC2)CC1 (centres unmarked) [Example 23, 1-(4-Cyanobenzenesulfonyl)-3-{2-[4-(1-methylpiperidin-4-yl)piperazin-1-yl]-2-oxo-1-phenylethyl}-2-oxo-2,3-dihydro-1H-benzimidazole-5-carbonitrile]	0.5 to 10
COc1ccc(S(=O)(=O)n2c(=O)n(CC(=O)N3CCN(c4ccncc4)CC3)c3cc(Cl)ccc32)cc1 [Example 24, 5-Chloro-1-(4-methoxybenzenesulfonyl)-3-[2-oxo-2-(4-pyridin-4-ylpiperazin-1-yl)-ethyl]-1,3-dihydrobenzimidazol-2-one]	0.1 to 0.5
COc1ccc(S(=O)(=O)n2c(=O)n(CC(=O)N3CCN(c4ccncc4)CC3)c3cc(Cl)ccc32)c(OC)c1 [Example 25, 5-Chloro-1-(2,4-dimethoxybenzenesulfonyl)-3-[2-oxo-2-(4-pyridin-4-ylpiperazin-1-yl)-ethyl]-1,3-dihydrobenzimidazol-2-one]	0.1 to 0.5
N#Cc1ccc(S(=O)(=O)n2c(=O)n(CC(=O)N3CCN(c4ccncc4)CC3)c3cc(Cl)ccc32)cc1 [Example 26, 4-{5-Chloro-2-oxo-3-[2-oxo-2-(4-pyridin-4-ylpiperazin-1-yl)ethyl]-2,3-dihydrobenzimidazole-1-sulfonyl}benzonitrile]	0.5 to 10
COc1ccc(S(=O)(=O)n2c(=O)n(C(Cc3ccccc3)C(=O)N3CCN(c4ccncc4)CC3)c3cc(Cl)ccc32)cc1 (centres unmarked) [Example 27, 3-[1-Benzyl-2-oxo-2-(4-pyridin-4-ylpiperazin-1-yl)ethyl]-5-chloro-1-(4-methoxybenzenesulfonyl)-1,3-dihydrobenzimidazol-2-one]	0.1 to 0.5
COc1ccc(S(=O)(=O)n2c(=O)n(C(Cc3ccccc3)C(=O)N3CCN(c4ccncc4)CC3)c3cc(Cl)ccc32)c(OC)c1 (centres unmarked) [Example 28, 3-[1-Benzyl-2-oxo-2-(4-pyridin-4-ylpiperazin-1-yl)ethyl]-5-chloro-1-(2,4-dimethoxybenzenesulfonyl)-1,3-dihydrobenzimidazol-2-one]	< 0.1
N#Cc1ccc(S(=O)(=O)n2c(=O)n(C(Cc3ccccc3)C(=O)N3CCN(c4ccncc4)CC3)c3cc(Cl)ccc32)cc1 (centres unmarked) [Example 29, 4-{3-[1-Benzyl-2-oxo-2-(4-pyridin-4-ylpiperazin-1-yl)ethyl]-5-chloro-2-oxo-2,3-dihydrobenzimidazol-1-sulfonyl}-benzonitrile]	0.5 to 10
COc1ccc(S(=O)(=O)n2c(=O)n(C(C)C(=O)N3CCN(c4ccncc4)CC3)c3cc(Cl)ccc32)cc1 (centres unmarked) [Example 30, 5-Chloro-1-(4-methoxybenzenesulfonyl)-3-[1-methyl-2-oxo-2-(4-pyridin-4-ylpiperazin-1-yl)-ethyl]-1,3-dihydrobenzimidazol-2-one]	0.5 to 10
COc1ccc(S(=O)(=O)n2c(=O)n(C(C)C(=O)N3CCN(c4ccncc4)CC3)c3cc(Cl)ccc32)c(OC)c1 (centres unmarked) [Example 31, 5-Chloro-1-(2,4-dimethoxybenzenesulfonyl)-3-[1-methyl-2-oxo-2-(4-pyridin-4-ylpiperazin-1-yl)ethyl]-1,3-dihydrobenzimidazol-2-one]	0.1 to 0.5
CC(C(=O)N1CCN(c2ccncc2)CC1)n1c(=O)n(S(=O)(=O)c2ccc(C#N)cc2)c2ccc(Cl)cc21 (centres unmarked) [Example 32, 4-{5-Chloro-3-[1-methyl-2-oxo-2-(4-pyridin-4-ylpiperazin-1-yl)ethyl]-2-oxo-2,3-dihydrobenzimidazole-1-sulfonyl}benzonitrile]	0.5 to 10
COc1ccc(C(C(=O)N2CCN(c3ccncc3)CC2)n2c(=O)n(S(=O)(=O)c3ccc(OC)cc3)c3ccc(Cl)cc32)cc1 (centres unmarked) [Example 33, 5-Chloro-1-(4-methoxybenzenesulfonyl)-3-[1-(4-methoxyphenyl)-2-oxo-2-(4-pyridin-4-ylpiperazin-1-yl)-ethyl]-1,3-dihydrobenzimidazol-2-one]	0.1 to 0.5
CN1CCC(N2CCN(C(=O)C(c3ccccc3)n3c(=O)n(S(=O)(=O)c4cccc5cccnc45)c4cc(Cl)c(Cl)cc43)CC2)CC1 (centres unmarked) [Example 35, 5,6-Dichloro-1-{2-[4-(1-methylpiperidin-4-yl)piperazin-1-yl]-2-oxo-1-phenylethyl}-3-(quinoline-8-sulfonyl)-1,3-dihydrobenzimidazol-2-one]	0.5 to 10
COc1ccc(S(=O)(=O)n2c(=O)n(C(C(=O)N3CCN(C4CCN(C)CC4)CC3)c3ccccc3)c3cc(Cl)c(Cl)cc32)cc1 (centres unmarked) [Example 36, 5,6-Dichloro-1-(4-methoxybenzenesulfonyl)-3-{2-[4-(1-methylpiperidin-4-yl)piperazin-1-yl]-2-oxo-1-phenylethyl}-1,3-dihydrobenzimidazol-2-one]	0.5 to 10
